Tests used:
[1] = system: DNAs from normal tissues (human bone marrow and spleen); assay: in vitro synthesis (replication) of DNA from normal human tissues; assay type: biochemical; details: FIG. 3
Excerpt: (§1) […]
(§2) DNAs used were isolated from human cancer and normal tissues furnished by different hospitals as indicated in IRCS Medical Science 14: 809-810, 1986. The normal brain tissue originated from Macaca mulatta.

[2] = system: DNA from cancerous tissue; assay: in vitro synthesis of tritium-labeled cancer DNA, agent added at different points in time; assay type: biochemical; details: FIGS. 4a, 4b
Excerpt: The same test method was used on DNA from cancerous tissue, determining the amount of tritium-labeled DNA synthesized over a period of time and the effect of introducing naringin at different points in time.

[3] = system: tobacco mosaic virus (TMV); assay: tobacco mosaic virus multiplication on tobacco leaf (plaque forming units); details: 20-50 micrograms per milliliter, virus incubated at 30° C. for 30 min.; xanthy tobacco leaf; checked two to three days later; FIG. 7
Method: The effect of naringin prepared according to Example 1, of commercial naringin and of commercial naringenin has been tested on tobacco mosaic virus (TMV). In this experiment, viral suspension containing 2 μg of virus/ml of distilled water, was incubated at 30° C. for 30 min. with each of the above compounds (20-50 micrograms per milliliter) and then 20 μl placed on one-half of the leaf ([…] tobacco) while the same concentration of untreated virus was placed on the other half of the same leaf. The appearance of viral disease was checked two to three days later. […] Naringenin or commercial naringin gave similar results.

[4] = biological activity compared with commercial compounds; details: compared with that exhibited by commercial compounds
[5] = system: Terminal deoxynucleotidyl Transferase (TdT); assay: in vitro activity of TdT in cat leucosis vaccine (Leucocell); assay type: biochemical; details: 10 minutes at 36° C., pH 7.70, FIG. 6
Excerpt: Both naringin and naringenin inhibit in vitro the activity of Terminal deoxynucleotidyl Transferase (TdT), an enzyme involved in the integration of viral genome into host cell. This enzyme is present in cat leucosis vaccine prepared by genetic engineering (Engerix® Leucocell vaccine), vaccine highly purified. I have previously shown that this enzyme catalyzes the polymerisation of d-TMP and d-CMP originating from d-TTP and d-CTP used respectively as substrates.
(§3) For testing the activity of TdT, the incubation medium (0.10 ml final volume) contains: 25 μmoles fresh solution of Tris-HC1 buffer pH 7.70; 2 μmoles MgCl2; (^3 d-NTP (deoxynucleoside-5'-triphosphate, 100,000 CPM). Increasing amounts of Leucocell vaccine (as indicated in FIG. 6) are used. Incubation for 10 minutes at 36° C., then addition of an equal volume of trichloroacetic acid (TCA 5%). Acid-precipitable material is filtered on millipore (Whatman GF/C), washed with 5% TCA then with 95° alcohol. After millipore drying, radioactivity of acid-insoluble material is measured in scintillation spectrometer Packard. The results are expressed as CPM (counts/minute)/sample.

[6] = system: DNAs from different human cancer tissues, i.e. breast, colon and liver cancers; assay: in vitro synthesis (replication) of DNA from human cancer tissues; assay type: biochemical; details: FIG. 3
Excerpt: as §1, §2

[7] = system: normal human bone marrow cells; assay: effect on in vitro cultured normal human bone marrow cells; assay type: cell-based; details: various concentrations; FIG. 2
Method: (§4) Naringin prepared in Example 1 has been used for determining its effect on in vitro cultured human cancer and normal cells, according to the method of Shoermaker R.H. et al., Cancer Research 45: 2145-2153, 1985). Culture medium contained 100 μg of penicillin and streptomycin in order to prevent bacterial contamination.

[8] = system: cancer cell DNA; assay: UV absorbance at 260 nm (hypochromicity, DNA chain contraction), cancer cell DNA; details: 20 μg DNA in 1 ml Tris-HCl pH 7.3, room temperature, FIGS. 5a, 5b
Excerpt: (§5) Naringin prepared in accordance with Example 1, and a commercial sample of naringenin prepared by Roth Co. of France, were used for comparison. […] The results are expressed as decrease of UV absorbance (hypochromicity) in the presence of various concentrations of the agent. The hypochromicity corresponds to DNA chain contraction, while hyperchromicity would correspond to DNA chain opening (i.e. the breaking of hydrogen bonds which normally hold the two DNA chains together). The spleen and bone marrow DNAs used in this test were from normal human spleen and bone marrow tissue cells. UV absorbance at wavelength of 260 nm for different DNAs from normal and cancer cells is performed at room temperature. 20 μg (micrograms) of DNA (deoxyribonucleic acid) are dissolved in 1 ml of Tris-HC1 buffer (10^-2 molar, pH adjusted to 7.3, solution made using sterile distilled water). The absorbance is measured before and after addition of either naringin or naringenin. The blank cuvette contains an equivalent amount of naringin or naringenin, but not DNA. The contact between DNA and compound is of about one minute (very slight agitation). The absorbance at 260 nm is then measured. The results are expressed as diminution (%) of UV absorbance.

[9] = system: DNA from normal monkey brain; assay: in vitro synthesis (replication) of DNA from normal monkey brain; assay type: biochemical; details: Macaca mulatta brain; FIG. 3
Excerpt: as §1, §2

[10] = system: tumor cells; assay: mice bearing tumor cells treated with naringin and a chemotherapeutic agent; assay type: in vivo, mouse; details: with 5-fluorouracil, ARA-C, Endoxan, hydroxy-urea; i.p.; FIGS. 9a-9b, 10a-10d
Method: (§6) O BALB C mice bearing lymphoma YC8 (ascitic form) and Swiss mice bearing Ehrlich ascitic cells (20-22 grams, Charles River breeding) were distributed at random in sets of 10.
Set III: Mice bearing tumor cells received naringin (JO-1): 0.2 ml/mouse twice/day (for concentrations, see FIGS. 9 and 10), i.p. route and, at the same time these mice received a chemotherapeutic agent (for concentrations, see FIGS. 9 and 10) i.p. route.
(§7) Ascitic tumor cells were taken in sterile medium from mice bearing these cells for 15-20 days. 0.1 ml of ascitic suspension was mixed with 10 ml of buffered solution (pH 7.2) : (NaCl 7.2 g/l; Na2 HPO4 4.3 g/l and KH2 PO4 0.4 g/l).
(§8) The number of cells was determined (by Malassez cell) and cellular suspension diluted in order to get cell number close to 40.000-50.000/ml. 0.1 ml of this suspension was immediately injected by i.p. route to mice in sets I, II and III and by i.m. route to mice in set IV.
Treatment: 48 hours after injection of tumor cells: the mice of set II received (i.p.) JO-1 heated at 37° and filtered on millipore, treatment for five consecutive days; the mice of set III were treated (i.p.) by a mixture of JO-1 and one of the antibiotics for 5 consecutive days; the mice of set I (control) received (i.p.) only isotonic solution for 5 consecutive days; the mice of set IV received (i.m.) JO-1 for 15 consecutive days. […]

[11] = system: BALB C mice; assay: toxicity by intravenous route in BALB C mice; assay type: in vivo, mouse; details: for toxic effect: i.v. route, 10% DMSO, BALB C mice; for tolerability: i.v. injection or perfusion, doses from 250-1000 mg/kg (concluded)
Excerpt: This example illustrates the absence of toxicity of naringin or naringenin injected by intravenous route to BALB C mice.

[12] = system: Terminal deoxynucleotidyl Transferase (TdT); assay: in vitro activity of TdT which contaminates Engerix-vaccine antigen B; assay type: biochemical; details: TdT which contaminates Engerix-vaccine antigen B (DNA virus antigen), same conditions
Method: as §3
In contrast, the activity of TdT which contaminates Engerix®-vaccine antigen B (Med. Sci. Res. 1987, vol.15 pp. 529-530), an antigen prepared from DNA virus is not inhibited, under the same conditions, by naringin or naringenin. Thus both naringin and naringenin selectively interfere with the proliferation of RNA virus but not DNA virus. However, as RNA from RNA-virus is transcribed into DNA by reverse transcriptase before being integrated into cell genome (potential role of TdT), naringin and naringenin are equally useful agents in treatment of all DNA infections equally.

[13] = system: human cancer cells; assay: effect on in vitro cultured human cancer cells; assay type: cell-based; details: various concentrations; ovary cancer and leukemic cells resistant to classical chemotherapy; FIG. 2
Method: as §4

[14] = system: normal cell DNA (spleen and bone marrow); assay: UV absorbance at 260 nm (hypochromicity, DNA chain contraction), normal cell DNA; details: normal human spleen and bone marrow DNA, 20 μg in 1 ml Tris-HCl pH 7.3, 260 nm; FIGS. 5a, 5b
Excerpt: as §5

[15] = system: Ehrlich ascitic cells; assay: mice bearing Ehrlich ascitic cells; assay type: in vivo, Swiss mice; details: than lymphoma YC8 cells
Method: as §6
Set II: Mice bearing tumor cells received JO-1 (= naringin, Example 1): 0.2 ml/mouse, twice/day, i.p. route (for JO-1 concentrations, see Tables 1, 3, and 4, and FIG. 10.)
as §7, §8
Treatment: 48 hours after injection of tumor cells: the mice of set II received (i.p.) JO-1 heated at 37° and filtered on millipore, treatment for five consecutive days; the mice of set III were treated (i.p.) by a mixture of JO-1 and one of the antibiotics for 5 consecutive days; the mice of set I (control) received (i.p.) only isotonic solution for 5 consecutive days; the mice of set IV received (i.m.) JO-1 for 15 consecutive days.
Only the survivors in excellent physical condition were taken into consideration .

Row | SMILES | effect on in vitro synthesis of DNAs from normal human tissues [1] | effect on DNA chain elongation ([2]; added after the reaction starts) | effect on DNA initiation ([2]; given at zero time of incubation) | inhibition of TMV multiplication [3] | biological activity [4] | inhibition of in vitro activity of TdT [5] | inhibition of in vitro synthesis of DNAs from human cancer tissues [6] | effect on in vitro cultured normal human bone marrow cells [7] | contraction of cancer cell DNA chains (hypochromicity) [8] | effect on in vitro synthesis of DNA from normal monkey brain [9] | synergistic action with classical antibiotics [10] | toxic effect ([11]; 125 mg/kg) | toxic effect ([11]; 250 mg/kg) | toxic effect ([11]; 500 mg/kg) | tolerability [11] | inhibition of in vitro activity of TdT [12] | inhibition of in vitro cultured human cancer cells [13] | contraction of normal cell DNA chains (hypochromicity) [14] | sensitivity of Ehrlich ascitic cells to naringin compared with lymphoma YC8 cells [15]
1 | C[C@@H]1O[C@@H](O[C@H]2[C@H](Oc3cc(O)c4c(c3)O[C@H](c3ccc(O)cc3)CC4=O)O[C@H](CO)[C@@H](O)[C@@H]2O)[C@H](O)[C@H](O)[C@H]1O [naringin] | practically unaffected | stops DNA chain elongation | acts on DNA initiation sites | inhibits TMV multiplication | better biological activity | inhibit in vitro activity of TdT | strongly inhibits | little effect | contract cancer cell DNA chains | practically unaffected | synergistic action | no toxic effect | no toxic effect | no toxic effect | well tolerated | not inhibited | strongly inhibits | either no effect or a very slight effect | less sensitive
2 | O=C1C[C@@H](c2ccc(O)cc2)Oc2cc(O)cc(O)c21 [naringenin] | – | – | – | inhibits TMV multiplication | – | inhibit in vitro activity of TdT | – | – | contract cancer cell DNA chains | – | – | no toxic effect | no toxic effect | no toxic effect | well tolerated | not inhibited | – | either no effect or a very slight effect | –

— US5145839A, “Pharmaceutical composition and method of use” (priority 1988, dated 1992)
